In ChEMBL document CHEMBL4339181, “Kinase and Histone Deacetylase Hybrid Inhibitors for Cancer Therapy” (J Med Chem, 2019):

Key:
[1] = Toxicity in patient with advanced solid tumor administered as 1 hr iv infusion for 5 consecutive days every 2 weeks; assay type: organism-based; conditions: human, in vivo
HepG2 = experiment: Antitumor activity against human HepG2 cells xenografted in nu/nu CD-1 mouse assessed as tumor regression at 120 mg/kg, iv administered daily relative to control; assay type: functional
[2] = Toxicity in patient with advanced solid tumor assessed as fatigue administered as 1 hr iv infusion for 5 consecutive days every 2 weeks relative to control; assay type: organism-based; conditions: human, in vivo
[3] = Toxicity in patient with advanced solid tumor assessed as transient reversible nausea administered as 1 hr iv infusion for 5 consecutive days every 2 weeks relative to control; assay type: organism-based; conditions: human, in vivo
[4] = Toxicity in patient with advanced solid tumor assessed as serum creatinine elevation administered as 1 hr iv infusion for 5 consecutive days every 2 weeks relative to control; assay type: organism-based; conditions: human, in vivo
[5] = Toxicity in patient with advanced solid tumor assessed as serum AST elevation administered as 1 hr iv infusion for 5 consecutive days every 2 weeks relative to control; assay type: organism-based; conditions: human, in vivo
[6] = Toxicity in patient with advanced solid tumor assessed as dry skin administered as 1 hr iv infusion for 5 consecutive days every 2 weeks relative to control; assay type: organism-based; conditions: human, in vivo
Histone deacetylase 9 = Histone deacetylase 9 (Homo sapiens, UniProt Q9UKV0); experiment: Inhibition of HDAC9 (unknown origin)
Sequence of Histone deacetylase 9 (Q9UKV0 whole entry): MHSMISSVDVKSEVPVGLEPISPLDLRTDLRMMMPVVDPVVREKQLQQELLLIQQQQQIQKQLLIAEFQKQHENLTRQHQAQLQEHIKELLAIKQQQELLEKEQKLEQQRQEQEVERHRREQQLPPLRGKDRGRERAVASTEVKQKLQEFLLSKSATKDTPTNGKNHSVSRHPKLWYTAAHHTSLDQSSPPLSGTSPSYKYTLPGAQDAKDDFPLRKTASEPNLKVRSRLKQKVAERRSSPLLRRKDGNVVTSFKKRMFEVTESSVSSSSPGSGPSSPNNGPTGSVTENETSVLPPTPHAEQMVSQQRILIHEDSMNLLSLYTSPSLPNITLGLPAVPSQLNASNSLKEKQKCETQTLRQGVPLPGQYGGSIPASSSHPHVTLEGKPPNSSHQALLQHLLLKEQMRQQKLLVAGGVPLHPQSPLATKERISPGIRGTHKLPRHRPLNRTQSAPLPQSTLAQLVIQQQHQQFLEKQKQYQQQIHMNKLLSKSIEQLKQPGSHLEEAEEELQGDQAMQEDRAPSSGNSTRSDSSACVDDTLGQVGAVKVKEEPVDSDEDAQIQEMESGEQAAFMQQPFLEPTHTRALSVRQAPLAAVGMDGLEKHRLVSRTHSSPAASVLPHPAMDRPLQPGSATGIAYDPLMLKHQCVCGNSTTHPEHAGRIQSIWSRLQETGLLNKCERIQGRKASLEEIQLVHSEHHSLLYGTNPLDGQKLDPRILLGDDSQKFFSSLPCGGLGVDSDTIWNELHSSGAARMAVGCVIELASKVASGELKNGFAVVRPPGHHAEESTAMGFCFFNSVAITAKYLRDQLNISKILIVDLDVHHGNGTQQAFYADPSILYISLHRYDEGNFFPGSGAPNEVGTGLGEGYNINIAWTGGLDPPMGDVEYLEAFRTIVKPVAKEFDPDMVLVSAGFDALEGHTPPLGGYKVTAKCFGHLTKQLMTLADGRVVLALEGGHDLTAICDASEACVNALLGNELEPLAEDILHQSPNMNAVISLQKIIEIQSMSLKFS

Histone deacetylase 8 = target: T1, Histone deacetylase 8 (Homo sapiens, UniProt Q9BY41)
T1 sequence (Q9BY41 whole entry): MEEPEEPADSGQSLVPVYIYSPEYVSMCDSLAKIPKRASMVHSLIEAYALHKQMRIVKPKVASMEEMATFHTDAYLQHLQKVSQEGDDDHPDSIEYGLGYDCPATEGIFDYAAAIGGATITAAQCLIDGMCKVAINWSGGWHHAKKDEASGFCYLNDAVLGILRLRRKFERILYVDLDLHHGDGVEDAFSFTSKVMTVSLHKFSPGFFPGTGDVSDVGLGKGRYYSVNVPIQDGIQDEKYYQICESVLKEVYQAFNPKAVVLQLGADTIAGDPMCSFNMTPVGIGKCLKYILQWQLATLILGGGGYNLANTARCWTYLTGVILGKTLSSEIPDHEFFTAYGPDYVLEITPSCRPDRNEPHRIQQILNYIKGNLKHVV
Description: Inhibition of HDAC8 (unknown origin)

[7] = target: T2, Protein deacetylase HDAC6 (Homo sapiens, UniProt Q9UBN7)
T2 sequence (Q9UBN7 whole entry): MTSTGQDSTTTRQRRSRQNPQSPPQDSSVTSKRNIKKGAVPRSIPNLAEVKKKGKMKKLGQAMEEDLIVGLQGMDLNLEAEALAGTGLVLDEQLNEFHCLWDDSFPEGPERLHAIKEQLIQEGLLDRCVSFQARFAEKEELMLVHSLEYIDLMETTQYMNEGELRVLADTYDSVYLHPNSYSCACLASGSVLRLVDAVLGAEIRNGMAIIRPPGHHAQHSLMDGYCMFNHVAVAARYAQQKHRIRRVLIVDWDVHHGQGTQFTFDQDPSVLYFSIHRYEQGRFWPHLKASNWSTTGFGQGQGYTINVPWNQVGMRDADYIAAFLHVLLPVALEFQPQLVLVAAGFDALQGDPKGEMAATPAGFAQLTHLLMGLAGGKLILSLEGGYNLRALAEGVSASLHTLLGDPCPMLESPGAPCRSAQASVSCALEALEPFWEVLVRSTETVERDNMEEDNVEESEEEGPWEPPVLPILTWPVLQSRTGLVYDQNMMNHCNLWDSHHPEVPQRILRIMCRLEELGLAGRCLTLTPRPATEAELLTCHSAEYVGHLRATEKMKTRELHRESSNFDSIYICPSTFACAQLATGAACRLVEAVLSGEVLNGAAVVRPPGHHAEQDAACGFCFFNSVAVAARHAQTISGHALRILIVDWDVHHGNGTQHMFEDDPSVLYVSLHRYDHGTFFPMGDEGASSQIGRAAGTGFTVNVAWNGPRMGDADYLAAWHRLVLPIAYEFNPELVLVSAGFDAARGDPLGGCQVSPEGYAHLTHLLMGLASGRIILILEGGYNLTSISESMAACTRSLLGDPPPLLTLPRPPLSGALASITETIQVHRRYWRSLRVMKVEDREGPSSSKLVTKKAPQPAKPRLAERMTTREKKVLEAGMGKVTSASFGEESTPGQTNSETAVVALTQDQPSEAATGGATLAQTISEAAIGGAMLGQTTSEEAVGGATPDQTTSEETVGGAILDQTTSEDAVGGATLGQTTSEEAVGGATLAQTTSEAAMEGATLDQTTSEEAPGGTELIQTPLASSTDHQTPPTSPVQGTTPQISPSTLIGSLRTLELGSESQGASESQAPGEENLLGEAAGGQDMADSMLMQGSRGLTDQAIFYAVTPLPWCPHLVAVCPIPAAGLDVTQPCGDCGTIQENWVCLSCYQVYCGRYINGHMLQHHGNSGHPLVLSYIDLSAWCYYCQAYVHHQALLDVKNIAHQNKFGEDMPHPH
Description: Inhibition of HDAC6 (unknown origin)

Histone deacetylase 5 = Histone deacetylase 5 (Homo sapiens, UniProt Q9UQL6); experiment: Inhibition of HDAC5 (unknown origin)
Sequence of Histone deacetylase 5 (Q9UQL6 whole entry): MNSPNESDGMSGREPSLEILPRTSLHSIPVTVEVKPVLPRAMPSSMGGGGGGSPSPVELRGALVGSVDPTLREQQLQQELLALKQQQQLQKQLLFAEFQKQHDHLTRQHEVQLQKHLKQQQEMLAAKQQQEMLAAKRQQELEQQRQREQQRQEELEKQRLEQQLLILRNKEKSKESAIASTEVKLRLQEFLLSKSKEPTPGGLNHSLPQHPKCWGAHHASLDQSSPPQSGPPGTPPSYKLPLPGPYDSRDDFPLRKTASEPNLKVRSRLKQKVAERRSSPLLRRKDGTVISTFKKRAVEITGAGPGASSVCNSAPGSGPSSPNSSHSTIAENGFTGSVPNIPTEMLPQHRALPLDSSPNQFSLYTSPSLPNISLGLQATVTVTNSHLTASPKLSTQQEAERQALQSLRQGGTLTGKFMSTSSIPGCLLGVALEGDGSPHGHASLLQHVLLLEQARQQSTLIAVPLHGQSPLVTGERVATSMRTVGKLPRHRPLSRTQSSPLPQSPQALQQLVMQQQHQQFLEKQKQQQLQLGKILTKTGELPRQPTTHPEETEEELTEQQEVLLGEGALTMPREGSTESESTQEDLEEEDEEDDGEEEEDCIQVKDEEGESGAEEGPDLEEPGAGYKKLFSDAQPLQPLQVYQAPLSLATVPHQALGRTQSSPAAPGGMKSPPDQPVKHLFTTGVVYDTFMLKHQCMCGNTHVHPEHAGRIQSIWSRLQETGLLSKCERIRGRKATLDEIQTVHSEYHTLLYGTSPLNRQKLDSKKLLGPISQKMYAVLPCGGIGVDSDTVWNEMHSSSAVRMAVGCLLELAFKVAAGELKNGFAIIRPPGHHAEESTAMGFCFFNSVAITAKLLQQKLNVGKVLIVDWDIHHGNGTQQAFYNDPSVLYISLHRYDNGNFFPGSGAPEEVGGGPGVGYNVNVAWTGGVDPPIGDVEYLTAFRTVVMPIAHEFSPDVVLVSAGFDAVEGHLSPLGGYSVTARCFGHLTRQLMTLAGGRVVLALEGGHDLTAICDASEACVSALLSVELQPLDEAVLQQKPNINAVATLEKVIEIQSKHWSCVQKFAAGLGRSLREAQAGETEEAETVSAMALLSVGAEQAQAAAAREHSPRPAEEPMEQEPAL

| SMILES | MTD [1] | Activity (HepG2) | Activity [2] | Activity [3] | Activity [4] | Activity [5] | Activity [6] | IC50 (Histone deacetylase 9) | IC50 (Histone deacetylase 8) | IC50 [7] | IC50 (Histone deacetylase 5) |
| --- | --- | --- | --- | --- | --- | --- | --- | --- | --- | --- | --- |
| C#Cc1cccc(Nc2ncnc3cc(OC)c(OCCCCCCC(=O)NO)cc23)c1 [CUDC-101] | 275 mg/m2 | 30% | 24% | 24% | 12% | 12% | 16% |  |  |  |  |
| O=C(CCCCCCC(=O)Nc1ccccc1)NO [VORINOSTAT] |  |  |  |  |  |  |  | Not Active | Not Active | Not Active | Not Active |
